Laboratory results published in ChEMBL document CHEMBL1126805, “Synthesis and evaluation of a series of benzylaniline hydrochlorides as potential cytotoxic and antimitotic agents acting by inhibition of tubulin polymerization” (J Med Chem, 1993).

How the values were obtained:
DMS-273 = assay: Tested for cytotoxicity against DMS 273 (small-cell lung cancer) cell line.; assay type: functional, Homo sapiens
Tubulin = Tubulin (Bos taurus, UniProt Q6B856+Q862F3); assay: In vitro inhibition of bovine electrophoretically homogeneous tubulin polymerization.; assay type: functional
HL-60 = assay: Tested for cytotoxicity against human cancer cell lines HL-60(TB) (leukemia) cell line.; assay type: functional
NCI-H522 = assay: Tested for cytotoxicity against NCI-H522 (non-small-cell lung cancer) cell line.; assay type: functional, Homo sapiens
OVCAR-3 = assay: Tested for cytotoxicity against OVCAR-3 (ovarian cancer) cell line.; assay type: functional, Homo sapiens
M14 = assay: Tested for cytotoxicity against M14 melanoma; assay type: functional, Homo sapiens
CAKI-1 = assay: Tested for cytotoxicity against CAKI-1 renal cancer; assay type: functional, Homo sapiens
SF-295 = assay: In vitro cytotoxicity against SF-295 (CNS cancer) cell line.; assay type: functional, Homo sapiens
COLO 205 = assay: Tested for cytotoxicity against COLO 205 (colon cancer) cell line.; assay type: functional, Homo sapiens

Sequence of Tubulin (Q6B856 whole entry): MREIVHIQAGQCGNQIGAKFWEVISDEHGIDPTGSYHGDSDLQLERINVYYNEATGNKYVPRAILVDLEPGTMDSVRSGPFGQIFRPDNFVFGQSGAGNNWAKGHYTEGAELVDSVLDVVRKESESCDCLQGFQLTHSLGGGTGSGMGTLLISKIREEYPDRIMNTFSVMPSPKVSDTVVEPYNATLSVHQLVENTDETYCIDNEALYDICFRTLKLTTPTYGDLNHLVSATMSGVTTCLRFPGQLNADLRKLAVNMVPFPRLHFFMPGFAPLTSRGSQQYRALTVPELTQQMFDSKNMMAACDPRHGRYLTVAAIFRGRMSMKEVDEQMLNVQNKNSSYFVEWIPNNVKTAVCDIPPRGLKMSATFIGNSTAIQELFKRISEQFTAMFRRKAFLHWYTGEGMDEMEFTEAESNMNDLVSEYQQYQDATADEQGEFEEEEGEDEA
Sequence of Tubulin (Q862F3 whole entry): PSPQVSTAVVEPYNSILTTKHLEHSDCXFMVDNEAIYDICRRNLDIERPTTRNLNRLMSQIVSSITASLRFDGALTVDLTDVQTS

Molecule CCOc1ccc(/N=C/c2cc(OC)c(OC)c(OC)c2)cc1 has a GI50 (DMS-273; Homo sapiens, DMS-273) of over 100 µM, an IC50 (Tubulin) of over 40 µM and a GI50 (HL-60; Homo sapiens, HL-60) of over 100 µM. For the same molecule, the GI50 (NCI-H522; Homo sapiens, NCI-H522) was over 100 µM, the GI50 (OVCAR-3; Homo sapiens, OVCAR-3) was over 100 µM and the GI50 (M14; Homo sapiens, M14) was over 100 µM. For the same molecule, the GI50 (CAKI-1; Homo sapiens, CAKI-1) was over 100 µM and the GI50 (SF-295; Homo sapiens, SF-295) was over 100 µM.

COc1cc(CNc2ccc(C)cc2)cc(OC)c1OC was tested, and the GI50 (DMS-273; Homo sapiens, DMS-273) was 0.0926 µM, the IC50 (Tubulin) was 6 µM and the GI50 (HL-60) was 0.122 µM. The GI50 (COLO 205; Homo sapiens, COLO 205) was 0.152 µM, the GI50 (OVCAR-3; Homo sapiens, OVCAR-3) was 0.184 µM and the GI50 (M14; Homo sapiens, M14) was 0.15 µM. The GI50 (CAKI-1; Homo sapiens, CAKI-1) was 0.192 µM and the GI50 (SF-295; Homo sapiens, SF-295) was 0.163 µM.

In the case of COc1cc(CNc2ccc(SC)cc2)cc(OC)c1OC, the GI50 (DMS-273; Homo sapiens, DMS-273) is reported as 3.09 µM, the IC50 (Tubulin) is reported as over 40 µM and the GI50 (HL-60; Homo sapiens, HL-60) is reported as 3.7 µM. It also gave a GI50 (COLO 205; Homo sapiens, COLO 205) of 3.88 µM, a GI50 (NCI-H522; Homo sapiens, NCI-H522) of 4.68 µM and a GI50 (OVCAR-3; Homo sapiens, OVCAR-3) of 5.93 µM. The GI50 (M14; Homo sapiens, M14) was 5.26 µM, the GI50 (CAKI-1; Homo sapiens, CAKI-1) was 32 µM and the GI50 (SF-295) was 7.28 µM.

CCOc1ccc(NCc2cc(OC)c(OC)c(OC)c2)cc1 [listing 1 of 2 here] was tested, and the GI50 (DMS-273) was 0.296 µM, the IC50 (Tubulin) was 12 µM and the GI50 (HL-60; Homo sapiens, HL-60) was 0.296 µM. It also gave a GI50 (COLO 205; Homo sapiens, COLO 205) of 0.432 µM, a GI50 (NCI-H522; Homo sapiens, NCI-H522) of 0.38 µM and a GI50 (OVCAR-3; Homo sapiens, OVCAR-3) of 0.34 µM. It also gave a GI50 (M14; Homo sapiens, M14) of 0.403 µM, a GI50 (CAKI-1; Homo sapiens, CAKI-1) of 2.04 µM and a GI50 (SF-295; Homo sapiens, SF-295) of 0.274 µM.

CCCc1ccc(/N=C/c2cc(OC)c(OC)c(OC)c2)cc1 was tested, and the GI50 (DMS-273; Homo sapiens, DMS-273) was over 100 µM, the IC50 (Tubulin) was over 40 µM and the GI50 (HL-60; Homo sapiens, HL-60) was 22.6 µM. It also gave a GI50 (COLO 205; Homo sapiens, COLO 205) of over 100 µM, a GI50 (NCI-H522; Homo sapiens, NCI-H522) of over 100 µM and a GI50 (OVCAR-3; Homo sapiens, OVCAR-3) of over 100 µM. For the same molecule, the GI50 (M14; Homo sapiens, M14) was over 100 µM, the GI50 (CAKI-1; Homo sapiens, CAKI-1) was over 100 µM and the GI50 (SF-295; Homo sapiens, SF-295) was over 100 µM.

COc1ccc(NCc2cc(OC)c(OC)c(OC)c2)cc1 showed a GI50 (DMS-273) of 0.141 µM, an IC50 (Tubulin) of 4.6 µM and a GI50 (HL-60) of 0.115 µM. For the same molecule, the GI50 (COLO 205) was 0.235 µM, the GI50 (NCI-H522) was 0.412 µM and the GI50 (OVCAR-3) was 0.363 µM. The GI50 (CAKI-1) was 0.458 µM and the GI50 (SF-295) was 0.266 µM.

COc1ccc(/N=C/c2cc(OC)c(OC)c(OC)c2)cc1 gave a GI50 (DMS-273; Homo sapiens, DMS-273) of 33 µM, an IC50 (Tubulin) of over 40 µM and a GI50 (NCI-H522; Homo sapiens, NCI-H522) of over 100 µM. The GI50 (OVCAR-3; Homo sapiens, OVCAR-3) was over 100 µM and the GI50 (CAKI-1; Homo sapiens, CAKI-1) was over 100 µM.

CCCc1ccc(NCc2cc(OC)c(OC)c(OC)c2)cc1 was tested, and the GI50 (DMS-273; Homo sapiens, DMS-273) was 16.2 µM and the IC50 (Tubulin) was over 40 µM.

Work on CCOc1ccc(NCc2cc(OC)c(OC)c(OC)c2)cc1 [listing 2 of 2 here] yielded a GI50 (DMS-273) of 0.961 µM, an IC50 (Tubulin) of 11 µM and a GI50 (HL-60) of 0.448 µM. It also gave a GI50 (COLO 205) of 0.538 µM, a GI50 (NCI-H522) of 0.574 µM and a GI50 (OVCAR-3) of 0.464 µM. The GI50 (M14) was 0.532 µM, the GI50 (CAKI-1) was 1.05 µM and the GI50 (SF-295) was 0.418 µM.
